Oligonucleotides are written 5' to 3', each unit as a sugar letter and its base; * is a phosphorothioate linkage, no mark a phosphodiester; rarer units and linkages stand in square brackets, end groups in braces. Plain capitals give the bases only. Oligonucleotides are given in HELM: sugar(base)linkage, 5' to 3'; d 2'-deoxyribose, r ribose, m 2'-O-methylribose, p phosphate. ss, as = sense and antisense strand; d = 2'-deoxy (DNA); r = 2'-OH (RNA)
The substances below were run against UBE2T (assay: reporter assay of Huesken 2005). Conditions: siRNA.
Also: test concentration or dose not given here.

Substance	normalised inhibition (eCFP-eYFP dual reporter) [%]
sense rArArCrCrCrArArCrCrCrUrGrArUrGrArCrCrCdTdT / antisense rGrGrGrUrCrArUrCrArGrGrGrUrUrGrGrGrUrUdCdT	52.7
sense rArArGrArGrArUrGrCrUrUrGrArUrArArUrCrUdTdT / antisense rArGrArUrUrArUrCrArArGrCrArUrCrUrCrUrUdCdC	99.4
sense rArArGrGrArUrUrUrGrUrCrUrGrGrArUrGrUrUdTdT / antisense rArArCrArUrCrCrArGrArCrArArArUrCrCrUrUdCdC	79.9
sense rArArGrGrUrGrCrUrUrGrGrArGrArCrCrArUrCdTdT / antisense rGrArUrGrGrUrCrUrCrCrArArGrCrArCrCrUrUdTdT	60.5
sense rArArGrUrUrArUrCrArUrUrCrCrUrGrArGrArGdTdT / antisense rCrUrCrUrCrArGrGrArArUrGrArUrArArCrUrUdCdT	79.4
sense rArArUrGrCrCrArGrArCrArGrUrGrGrArCrArGdTdT / antisense rCrUrGrUrCrCrArCrUrGrUrCrUrGrGrCrArUrUdCdT	77.5
sense rArCrArCrArCrCrUrUrArUrGrArGrArArArGrGdTdT / antisense rCrCrUrUrUrCrUrCrArUrArArGrGrUrGrUrGrUdTdG	74.7
sense rArCrArUrArUrCrCrUrCrArGrArArUrUrUrArAdTdT / antisense rUrUrArArArUrUrCrUrGrArGrGrArUrArUrGrUdCdA	114
sense rArCrCrCrUrGrArUrGrArCrCrCrGrCrUrCrArUdTdT / antisense rArUrGrArGrCrGrGrGrUrCrArUrCrArGrGrGrUdTdG	101
sense rArCrCrUrCrCrUrCrArGrArUrCrCrGrArUrUrUdTdT / antisense rArArArUrCrGrGrArUrCrUrGrArGrGrArGrGrUdTdC	100
sense rArGrArArUrGrCrCrArGrArCrArGrUrGrGrArCdTdT / antisense rGrUrCrCrArCrUrGrUrCrUrGrGrCrArUrUrCrUdTdG	95
sense rArGrCrUrGrCrUrCrArUrGrUrCrArGrArArCrCdTdT / antisense rGrGrUrUrCrUrGrArCrArUrGrArGrCrArGrCrUdGdA	79.4
sense rArGrGrArArGrArGrArUrGrCrUrUrGrArUrArAdTdT / antisense rUrUrArUrCrArArGrCrArUrCrUrCrUrUrCrCrUdCdA	113
sense rArGrGrUrArCrCrCrArUrUrUrGrArArCrCrUrCdTdT / antisense rGrArGrGrUrUrCrArArArUrGrGrGrUrArCrCrUdCdT	63.1
sense rArGrGrUrGrCrUrUrGrGrArGrArCrCrArUrCrCdTdT / antisense rGrGrArUrGrGrUrCrUrCrCrArArGrCrArCrCrUdTdT	65.6
sense rArGrUrArGrGrCrArUrArGrArArArArGrArArAdTdT / antisense rUrUrUrCrUrUrUrUrCrUrArUrGrCrCrUrArCrUdAdG	102
sense rArUrCrUrArCrCrArGrArGrGrCrUrGrGrUrGrAdTdT / antisense rUrCrArCrCrArGrCrCrUrCrUrGrGrUrArGrArUdTdA	97
sense rArUrUrCrCrUrGrArGrArGrGrUrArCrCrCrArUdTdT / antisense rArUrGrGrGrUrArCrCrUrCrUrCrArGrGrArArUdGdA	114
sense rArUrUrGrCrCrArCrCrArArArArGrGrUrGrCrUdTdT / antisense rArGrCrArCrCrUrUrUrUrGrGrUrGrGrCrArArUdTdT	43.8

What follows are substances tested against UBE2D3 (assay: reporter assay of Huesken 2005). Conditions: siRNA.

Substance	normalised inhibition (eCFP-eYFP dual reporter) [%]
RNA1{r(U)p.r(U)p.r(C)p.r(A)p.r(A)p.r(A)p.r(C)p.r(C)p.r(A)p.r(C)p.r(C)p.r(U)p.r(A)p.r(A)p.r(G)p.r(G)p.r(U)p.r(U)p.r(G)p.d(T)p.d(T)}|RNA2{r(C)p.r(A)p.r(A)p.r(C)p.r(C)p.r(U)p.r(U)p.r(A)p.r(G)p.r(G)p.r(U)p.r(G)p.r(G)p.r(U)p.r(U)p.r(U)p.r(G)p.r(A)p.r(A)p.d(G)p.d(G)}$$$RNA1{StrandType:ss}|RNA2{StrandType:as}$	64.4
RNA1{r(U)p.r(U)p.r(C)p.r(A)p.r(U)p.r(U)p.r(U)p.r(U)p.r(C)p.r(C)p.r(U)p.r(A)p.r(C)p.r(A)p.r(G)p.r(A)p.r(C)p.r(U)p.r(A)p.d(T)p.d(T)}|RNA2{r(U)p.r(A)p.r(G)p.r(U)p.r(C)p.r(U)p.r(G)p.r(U)p.r(A)p.r(G)p.r(G)p.r(A)p.r(A)p.r(A)p.r(A)p.r(U)p.r(G)p.r(A)p.r(A)p.d(T)p.d(T)}$$$RNA1{StrandType:ss}|RNA2{StrandType:as}$	85
RNA1{r(U)p.r(U)p.r(C)p.r(U)p.r(G)p.r(C)p.r(A)p.r(G)p.r(G)p.r(U)p.r(C)p.r(C)p.r(A)p.r(G)p.r(U)p.r(U)p.r(G)p.r(G)p.r(G)p.d(T)p.d(T)}|RNA2{r(C)p.r(C)p.r(C)p.r(A)p.r(A)p.r(C)p.r(U)p.r(G)p.r(G)p.r(A)p.r(C)p.r(C)p.r(U)p.r(G)p.r(C)p.r(A)p.r(G)p.r(A)p.r(A)p.d(C)p.d(A)}$$$RNA1{StrandType:ss}|RNA2{StrandType:as}$	50
RNA1{r(U)p.r(U)p.r(G)p.r(C)p.r(A)p.r(U)p.r(U)p.r(U)p.r(A)p.r(C)p.r(A)p.r(A)p.r(C)p.r(A)p.r(A)p.r(G)p.r(A)p.r(A)p.r(U)p.d(T)p.d(T)}|RNA2{r(A)p.r(U)p.r(U)p.r(C)p.r(U)p.r(U)p.r(G)p.r(U)p.r(U)p.r(G)p.r(U)p.r(A)p.r(A)p.r(A)p.r(U)p.r(G)p.r(C)p.r(A)p.r(A)p.d(C)p.d(C)}$$$RNA1{StrandType:ss}|RNA2{StrandType:as}$	68.4
RNA1{r(U)p.r(U)p.r(U)p.r(A)p.r(C)p.r(A)p.r(A)p.r(C)p.r(A)p.r(A)p.r(G)p.r(A)p.r(A)p.r(U)p.r(U)p.r(U)p.r(A)p.r(U)p.r(C)p.d(T)p.d(T)}|RNA2{r(G)p.r(A)p.r(U)p.r(A)p.r(A)p.r(A)p.r(U)p.r(U)p.r(C)p.r(U)p.r(U)p.r(G)p.r(U)p.r(U)p.r(G)p.r(U)p.r(A)p.r(A)p.r(A)p.d(T)p.d(G)}$$$RNA1{StrandType:ss}|RNA2{StrandType:as}$	48.8
RNA1{r(U)p.r(U)p.r(U)p.r(C)p.r(A)p.r(U)p.r(U)p.r(G)p.r(G)p.r(C)p.r(A)p.r(A)p.r(G)p.r(C)p.r(C)p.r(A)p.r(C)p.r(A)p.r(A)p.d(T)p.d(T)}|RNA2{r(U)p.r(U)p.r(G)p.r(U)p.r(G)p.r(G)p.r(C)p.r(U)p.r(U)p.r(G)p.r(C)p.r(C)p.r(A)p.r(A)p.r(U)p.r(G)p.r(A)p.r(A)p.r(A)p.d(C)p.d(A)}$$$RNA1{StrandType:ss}|RNA2{StrandType:as}$	85.3
RNA1{r(U)p.r(U)p.r(U)p.r(C)p.r(U)p.r(A)p.r(A)p.r(A)p.r(G)p.r(U)p.r(U)p.r(C)p.r(U)p.r(U)p.r(U)p.r(U)p.r(A)p.r(U)p.r(C)p.d(T)p.d(T)}|RNA2{r(G)p.r(A)p.r(U)p.r(A)p.r(A)p.r(A)p.r(A)p.r(G)p.r(A)p.r(A)p.r(C)p.r(U)p.r(U)p.r(U)p.r(A)p.r(G)p.r(A)p.r(A)p.r(A)p.d(T)p.d(T)}$$$RNA1{StrandType:ss}|RNA2{StrandType:as}$	30.6

Source: the OligoGym collection
